Key:
[1] = tested on: peripheral blood mononuclear cells (PBMC), T cells; test: ELISpot assay, gamma-interferon release (SFC) after stimulation with a-synuclein epitope pools; type: cell-based, human; conditions: for Pool +: IFNg, Pool Stimulated, number of donors with a positive response, Donors tested 1; for IFNg Peptide + (donors positive to the peptide): of donors tested (peptide); for IFNg Peptide +: number of donors positive to the single peptide
How it was run: (§1)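 Readout is colorimetric counting of spot-forming cells, with at least 20 SFC per million cells required to confirm cytokine release. Patient and control mononuclear cells had been exposed for 22 hours at 37 C to pooled α-synuclein peptides, including phosphorylated S129 epitopes.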

[2] = tested on: peripheral blood mononuclear cells (PBMC), T cells; test: ELISpot assay, IL-5 release (SFC) after stimulation with a-synuclein epitope pools; type: cell-based, human; conditions: for IL-g Peptide + (donors positive to the peptide): of donors tested (peptide); for IL-g Peptide +: number of donors positive to the single peptide
How it was run: as §1

[3] = Patients Summary, PD patients, single peptide
[4] = second 'Pool Stimulated' section (from r296), 12 donors tested
[5] = peptide + / donors tested (peptide), second 'Pool Stimulated' section (from r296), 12 donors tested
[6] = single peptide, second 'Pool Stimulated' section (from r296), 12 donors tested

Row | Substance | Pool + [1] | IFNg Peptide + (donors positive to the peptide) ([1]; Patients Summary, PD patients) | IFNg Avg SFC [1, 3] [SFC] | IFNg Response Frequency [1, 3] [%] | IFNg Total SFC [1, 3] [SFC] | IFNg Peptide + [1, 4] | IFNg Response Frequency [1, 5] [%] | IFNg Total SFC [1, 6] [SFC] | IL-g Peptide + (donors positive to the peptide) ([2]; Patients Summary, PD patients) | IL-g Response Frequency [2, 3] [%] | IL-g Total SFC [2, 3] [SFC] | IL-g Peptide + [2, 4] | IL-g Response Frequency [2, 5] [%] | IL-g Total SFC [2, 6] [SFC] | IL-g Avg SFC [2, 3] [SFC] | IFNg Avg SFC [1, 6] [SFC] | IL-g Avg SFC [2, 6] [SFC]
1 | 3521.0069 (GVAEAAGKTK; listed as Homo sapiens) | 0 | 1 | 53 | 13 | 53 | 0 | 0 | 0 | 0 | 0 | 0 | 0 | 0 | 0 |  |  | 
2 | 3521.0071 (YVGSKTKEGVVHGVT; listed as Homo sapiens) | 0 | 0 |  | 0 | 0 |  |  |  | 1 | 17 | 35 |  |  |  | 35 |  | 
3 | 3521.0072 (EGVVHGVTTVAEKTK; listed as Homo sapiens) | 1 | 0 |  | 0 | 0 | 1 | 50 | 93.3 | 0 | 0 | 0 | 0 | 0 | 0 |  | 93.3 | 
4 | 3521.0073 (TTVAEKTKEQVTNVG; listed as Homo sapiens) | 1 | 0 |  | 0 | 0 | 0 | 0 | 0 | 0 | 0 | 0 | 0 | 0 | 0 |  |  | 
5 | 3521.0075 (KQGVAEAPGKTKEGV; listed as Homo sapiens) | 1 | 3 | 70 | 38 | 209 | 0 | 0 | 0 | 1 | 13 | 58 | 1 | 50 | 147 | 58 |  | 147
6 | 3521.0076 (PGKTKEGVLYVGSKT; listed as Homo sapiens) | 1 | 2 | 40 | 25 | 80 | 1 | 50 | 300 | 1 | 13 | 89 | 1 | 50 | 120 | 89 | 300 | 120
7 | 3521.0077 (KTKEGVLYVGSKTKK; listed as Homo sapiens) | 1 | 5 | 701 | 63 | 3505 | 2 | 100 | 3020 | 6 | 75 | 3565 | 2 | 100 | 1814 | 595 | 1510 | 3907
8 | 3521.0078 (YVGSKTKKGVVHGVA; listed as Homo sapiens) | 0 | 1 | 474 | 17 | 474 |  |  |  | 1 | 17 | 93 |  |  |  | 93 |  | 
9 | 3521.0079 (KGVVHGVATVAEKTK; listed as Homo sapiens) | 1 | 0 |  | 0 | 0 | 0 | 0 | 0 | 0 | 0 | 0 | 1 | 50 | 284 |  |  | 284
10 | 3521.0084 (YVGSKTKEGVVHGVA; listed as Homo sapiens) | 0 | 0 |  | 0 | 0 |  |  |  | 0 | 0 | 0 |  |  |  |  |  | 
11 | 3521.0085 (EGVVHGVATVAEKTK; listed as Homo sapiens) | 1 | 0 |  | 0 | 0 | 0 | 0 | 0 | 0 | 0 | 0 | 1 | 50 | 80 |  |  | 80
12 | 3521.0086 (ATVAEKTKEQVTNVG; listed as Homo sapiens) | 1 | 0 |  | 0 | 0 | 0 | 0 | 0 | 0 | 0 | 0 | 0 | 0 | 0 |  |  | 
